Laboratory results: patent US8921389B2, “Naphthyridine derivatives as inhibitors of hypoxia inducible factor (HIF) hydroxylase” (Fibrogen, Inc., priority 2011, dated 2014)

Molecular target: HIF-PH2 (EGLN1) (Homo sapiens (Human), UniProt Q9GZT9)
Experiment: HIF-PH assay (14CO2 capture, peptide-dependent turnover)
Type: biochemical
Details: enzyme inhibition against HIF-PH2; peptide-dependent percent turnover
Text: Ketoglutaric acid α-[1-^14C]-sodium salt, alpha-ketoglutaric acid sodium salt, and HPLC purified peptide may be obtained from commercial sources, e.g., Perkin-Elmer (Wellesley Mass.), Sigma-Aldrich, and SynPep Corp. (Dublin Calif.), respectively. […] For example, a HIF peptide for use in the HIF-PH assay is [methoxycoumarin]-[…]-amide. HIF-PH, e.g., HIF-PH2 (EGLN1), can be expressed in, e.g., insect Hi5 cells, and partially purified, e.g., through a SP ion exchange chromatography column. […] Reactions are initiated by addition of HIF-PH enzyme.
The peptide-dependent percent turnover is calculated by subtracting percent turnover in the absence of peptide from percent turnover in the presence of substrate peptide. Percent inhibition and IC50 are calculated using peptide-dependent percent turnover at given inhibitor concentrations. Calculation of IC50 values for each inhibitor is conducted using GraFit software (Erithacus Software Ltd., Surrey UK).
Representative compounds of the disclosure were analyzed using the HIF-PH assay described above.

Chain of HIF-PH2 (EGLN1) (Q9GZT9 whole entry): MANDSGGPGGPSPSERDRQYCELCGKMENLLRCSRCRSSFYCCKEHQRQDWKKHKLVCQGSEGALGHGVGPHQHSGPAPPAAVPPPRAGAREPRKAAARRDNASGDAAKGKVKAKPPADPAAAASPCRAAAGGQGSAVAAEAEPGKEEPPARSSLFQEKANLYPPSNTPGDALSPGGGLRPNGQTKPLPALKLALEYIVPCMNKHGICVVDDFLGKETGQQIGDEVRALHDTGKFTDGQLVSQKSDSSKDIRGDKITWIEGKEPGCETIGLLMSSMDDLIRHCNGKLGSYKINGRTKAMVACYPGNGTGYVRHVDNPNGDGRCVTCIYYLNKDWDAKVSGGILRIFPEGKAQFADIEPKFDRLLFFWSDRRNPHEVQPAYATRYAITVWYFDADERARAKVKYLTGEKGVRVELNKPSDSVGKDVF

| SMILES | IC50 [µM] |
| --- | --- |
| N#Cc1nc(C(=O)NCCCCC(=O)O)c(O)c2cc(-c3ccccc3)c(=O)n(Cc3ccccc3)c12 [Example 24, 5-[(1-Benzyl-8-cyano-5-hydroxy-2-oxo-3-phenyl-1,2-dihydro-[1,7]naphthyridine-6-carbonyl)-amino]-pentanoic acid] | > 200 |
| N#Cc1nc(C(=O)NCCS(N)(=O)=O)c(O)c2c1ccc(=O)n2Cc1ccccc1 [Example 106, 1-Benzyl-5-cyano-8-hydroxy-2-oxo-1,2-dihydro-[1,6]naphthyridine-7-carboxylic acid (2-sulfamoyl-ethyl)-amide] | > 200 |
| CNC(=O)c1nc(C#N)c2ccc(=O)n(Cc3ccccc3)c2c1O [Example 79, 1-Benzyl-5-cyano-8-hydroxy-2-oxo-1,2-dihydro-[1,6]naphthyridine-7-carboxylic acid methylamide] | > 200 |
| CCCNC(=O)CCCNC(=O)c1nc(C#N)c2c(=O)n(Cc3ccccc3)ccc2c1O [Example 73, 7-Benzyl-1-cyano-4-hydroxy-8-oxo-7,8-dihydro-[2,7]naphthyridine-3-carboxylic acid (3-propylcarbamoyl-propyl)-amide] | > 200 |
| O=C(O)CCCCNC(=O)c1nc(-c2cccnc2)c2c(cc(-c3ccccc3)c(=O)n2Cc2ccccc2)c1O [Example 163, 5-[(1-Benzyl-5-hydroxy-2-oxo-3-phenyl-8-pyridin-3-yl-1,2-dihydro-[1,7]naphthyridine-6-carbonyl)-amino]-pentanoic acid] | 200 |
| Cc1nc(C(=O)NCCC(=O)O)c(O)c2c1ccc(=O)n2Cc1ccccc1 [Example 112, 3-[(1-Benzyl-8-hydroxy-5-methyl-2-oxo-1,2-dihydro-[1,6]naphthyridine-7-carbonyl)-amino]-propionic acid] | > 200 |
| N#Cc1nc(C(=O)N[C@H](Cc2ccccc2)C(=O)O)c(O)c2ccn(Cc3ccccc3)c(=O)c12 [Example 51, (R)-2-[(7-Benzyl-1-cyano-4-hydroxy-8-oxo-7,8-dihydro-[2,7]naphthyridine-3-carbonyl)-amino]-3-phenyl-propionic acid] | > 200 |
| N#Cc1nc(C(=O)N[C@@H](Cc2ccccc2)C(=O)O)c(O)c2ccn(Cc3ccccc3)c(=O)c12 [Example 56, (S)-2-[(7-Benzyl-1-cyano-4-hydroxy-8-oxo-7,8-dihydro-[2,7]naphthyridine-3-carbonyl)-amino]-3-phenyl-propionic acid] | > 200 |
| CNC(=O)c1nc(C#N)c2c(cc(-c3ccccc3)c(=O)n2Cc2ccccc2)c1O [Example 41, 1-Benzyl-8-cyano-5-hydroxy-2-oxo-3-phenyl-1,2-dihydro-[1,7]naphthyridine-6-carboxylic acid methylamide] | > 200 |
| O=C(O)CCNC(=O)c1nc(-c2cccnn2)c2c(cc(-c3ccccc3)c(=O)n2Cc2ccccc2)c1O [Example 203, 3-[(1-Benzyl-5-hydroxy-2-oxo-3-phenyl-8-pyridazin-3-yl-1,2-dihydro-[1,7]naphthyridine-6-carbonyl)-amino]-propionic acid] | 200 |
| N#Cc1nc(C(=O)NC2CC2)c(O)c2ccn(Cc3ccccc3)c(=O)c12 [Example 39, 7-Benzyl-1-cyano-4-hydroxy-8-oxo-7,8-dihydro-[2,7]naphthyridine-3-carboxylic acid cyclopropylamide] | > 200 |
| C[C@@H](c1ccccc1)n1c(=O)c(-c2ccccc2)cc2c(O)c(C(=O)NCCC(=O)O)nc(-c3cccnc3)c21 [Example 175, (S)-3-{[5-Hydroxy-2-oxo-3-phenyl-1-(1-phenyl-ethyl)-8-pyridin-3-yl-1,2-dihydro-[1,7]naphthyridine-6-carbonyl]-amino}-propionic acid] | 200 |
| O=C(O)CCNC(=O)c1nc(-c2ccncc2)c2c(cc(-c3ccccc3)c(=O)n2CC2CCCCC2)c1O [Example 198, 3-[(1-Cyclohexylmethyl-5-hydroxy-2-oxo-3-phenyl-8-pyridin-4-yl-1,2-dihydro-[1,7]naphthyridine-6-carbonyl)-amino]-propionic acid] | 200 |
| CN(CCNC(=O)c1nc(-c2ccccc2)c2c(cc(-c3ccccc3)c(=O)n2Cc2ccccc2)c1O)S(C)(=O)=O [Example 133, 1-Benzyl-5-hydroxy-2-oxo-3,8-diphenyl-1,2-dihydro-[1,7]naphthyridine-6-carboxylic acid [2-(methanesulfonyl-methyl-amino)-ethyl]amide] | 200 |
| CCNC(=O)NCCNC(=O)c1ncc2c(cc(-c3ccccc3)c(=O)n2Cc2ccccc2)c1O [Example 110, 1-Benzyl-5-hydroxy-2-oxo-3-phenyl-1,2-dihydro-[1,7]naphthyridine-6-carboxylic acid [2-(3-ethyl-ureido)-ethyl]-amide] | 200 |
| CNC(=O)c1nc(C#N)c2c(=O)n(Cc3ccccc3)ccc2c1O [Example 38, 7-Benzyl-1-cyano-4-hydroxy-8-oxo-7,8-dihydro-[2,7]naphthyridine-3-carboxylic acid methylamide] | > 200 |
| COc1ccc(Cn2ccc3c(O)c(C(=O)NCCc4ccccc4)ncc3c2=O)c(OC)c1 [Example 76, 7-(2,4-Dimethoxy-benzyl)-4-hydroxy-8-oxo-7,8-dihydro-[2,7]naphthyridine-3-carboxylic acid phenethyl-amide] | > 200 |
| CS(=O)(=O)NCCNC(=O)c1ncc2ccc(=O)n(Cc3ccccc3)c2c1O [Example 111, 1-Benzyl-8-hydroxy-2-oxo-1,2-dihydro-[1,6]naphthyridine-7-carboxylic acid (2-methanesulfonylamino-ethyl)-amide] | > 200 |
| O=C(O)CCNC(=O)c1nc(-c2cccnc2)c2c(=O)n(Cc3ccccc3)ccc2c1O [Example 206, 3-[(7-Benzyl-4-hydroxy-8-oxo-1-pyridin-3-yl-7,8-dihydro-[2,7]naphthyridine-3-carbonyl)-amino]-propionic acid] | 200 |
| CN(CCNC(=O)c1nc(-c2cccnc2)c2c(cc(-c3ccccc3)c(=O)n2Cc2ccccc2)c1O)S(C)(=O)=O [Example 134, 1-Benzyl-5-hydroxy-2-oxo-3-phenyl-8-pyridin-3-yl-1,2-dihydro-[1,7]naphthyridine-6-carboxylic acid [2-(methanesulfonyl-methyl-amino)-ethyl]amide] | 200 |

The remaining lines, values ahead:

| IC50 [µM] | SMILES |
| --- | --- |
| 103 | O=C(N[C@H](Cc1ccccc1)C(=O)O)c1ncc2c(cc(-c3ccccc3)c(=O)n2Cc2ccccc2)c1O [Example 152, (R)-2-[(1-Benzyl-5-hydroxy-2-oxo-3-phenyl-1,2-dihydro-[1,7]naphthyridine-6-carbonyl)-amino]-3-phenyl-propionic acid] |
| 181 | O=C(O)CCNC(=O)c1ncc2ccn(Cc3ccccc3)c(=O)c2c1O [Example 54, 3-[(6-Benzyl-4-hydroxy-5-oxo-5,6-dihydro-[2,6]naphthyridine-3-carbonyl)-amino]-propionic acid] |
| 176 | Cc1ccc(-c2nc(C(=O)NCCC(=O)O)c(O)c3cc(-c4ccccc4)c(=O)n(Cc4ccccc4)c23)cn1 [Example 179, 3-{[1-Benzyl-5-hydroxy-8-(6-methyl-pyridin-3-yl)-2-oxo-3-phenyl-1,2-dihydro-[1,7]naphthyridine-6-carbonyl]-amino}-propionic acid] |
| 138 | O=C(O)CCNC(=O)c1nc(-c2nccs2)c2c(cc(-c3ccccc3)c(=O)n2Cc2ccccc2)c1O [Example 195, 3-[(1-Benzyl-5-hydroxy-2-oxo-3-phenyl-8-thiazol-2-yl-1,2-dihydro-[1,7]naphthyridine-6-carbonyl)-amino]-propionic acid] |
| 137 | CC(=O)NCCNC(=O)c1ncc2ccc(=O)n(Cc3ccccc3)c2c1O [Example 96, 1-Benzyl-8-hydroxy-2-oxo-1,2-dihydro-[1,6]naphthyridine-7-carboxylic acid (2-acetylamino-ethyl)-amide] |
| 138 | O=C(NCc1nnn[nH]1)c1ncc2ccc(=O)n(Cc3ccccc3)c2c1O [Example 82, 1-Benzyl-8-hydroxy-2-oxo-1,2-dihydro-[1,6]naphthyridine-7-carboxylic acid (1H-tetrazol-5-ylmethyl)-amide] |
| 182 | N#Cc1nc(C(=O)NCC2(C(=O)O)CCC2)c(O)c2ccn(Cc3ccccc3)c(=O)c12 [Example 62, 1-{[(7-Benzyl-1-cyano-4-hydroxy-8-oxo-7,8-dihydro-[2,7]naphthyridine-3-carbonyl)-amino]-methyl}-cyclobutanecarboxylic acid] |
| 196 | C[C@H](c1ccccc1)n1c(=O)c(-c2ccccc2)cc2c(O)c(C(=O)NCCC(=O)O)nc(-c3cccnc3)c21 [Example 176, (R)-3-{[5-Hydroxy-2-oxo-3-phenyl-1-(1-phenyl-ethyl)-8-pyridin-3-yl-1,2-dihydro-[1,7]naphthyridine-6-carbonyl]-amino}-propionic acid] |
| 134 | CC(=O)NCCNC(=O)c1nc(C#N)c2ccc(=O)n(Cc3ccccc3)c2c1O [Example 95, 1-Benzyl-5-cyano-8-hydroxy-2-oxo-1,2-dihydro-[1,6]naphthyridine-7-carboxylic acid (2-acetylamino-ethyl)-amide] |
| 107 | O=C(O)CCNC(=O)c1nc(-c2ccc(C(F)(F)F)nc2)c2c(cc(-c3ccccc3)c(=O)n2Cc2ccccc2)c1O [Example 180, 3-{[1-Benzyl-5-hydroxy-2-oxo-3-phenyl-8-(6-trifluoromethyl-pyridin-3-yl)-1,2-dihydro-[1,7]naphthyridine-6-carbonyl]-amino}-propionic acid] |
| 195 | N#Cc1nc(C(=O)NCc2ccncc2)c(O)c2ccn(Cc3ccccc3)c(=O)c12 [Example 48, 7-Benzyl-1-cyano-4-hydroxy-8-oxo-7,8-dihydro-[2,7]naphthyridine-3-carboxylic acid (pyridin-4-ylmethyl)-amide] |
